For 57 compounds, viability results are on record in article PMC12040169 (PLOS Biology, 2025).

The data set in a line: in vitro. The following applies: human, hela cells, % viability.

`COc1ccc(C(=O)Nc2cccc3nsnc23)cc1OC` [CBK260973]: the viability (usually a read-out of living cells in per cent, often relative to untreated cells) at 28.5 h, 10 µM was 92.2%.

For `CCN(Cc1cnc(C)s1)[C@H]1CCO[C@@H](c2ccccc2-c2ccc(OC)cc2)C1` [CBK285853], the viability at 28.5 h, 10 µM is 95.5%.

Consider `CS(=O)(=O)N(Cc1ccccc1)c1ccc(C(=O)N2CCN(Cc3ccccc3)CC2)cc1` [CBK264134], for which the viability at 28.5 h, 10 µM turned out to be 114%.

With `CCN(CC(=O)NCc1ccc(F)cc1)C(=O)c1cc(C#N)c[nH]1` [CBK305221], the viability at 28.5 h, 10 µM worked out at 87.9%.

In the case of `COc1cc(-c2cc(N3CCN(CCN4CCCC4)CC3)ncn2)cc(OC)c1OC` [CBK037841], the viability at 28.5 h, 10 µM turned out to be 102%.

`Cc1cc(C)c2c(c1)COC1(CCN(Cc3ccccc3)CC1)O2` [CBK061572]: the viability at 28.5 h, 10 µM came out at 102%.

For `CC(=O)NCCc1nc2cc(NC(=O)c3cccc([N+](=O)[O-])c3)ccc2n1C` [CBK268478], the viability at 28.5 h, 10 µM was 90.7%.

As to `Cc1ccc(C)c(-n2nnnc2SCC(=O)c2ccc(Cl)cc2Cl)c1` [CBK141941], the viability at 28.5 h, 10 µM was found to be 98.1%.

For `Cc1ccccc1-c1nnc(-c2ccc(C(=O)N=c3sccn3C)cc2)o1` [CBK298283], the viability at 28.5 h, 10 µM was found to be 97.1%.

Turning to `COc1ccc(-c2nc3c(c(=S)[nH]2)CCCC3)cc1` [CBK020440], the viability at 28.5 h, 10 µM came out at 99.2%.

Turning to `COc1ccc(C(NC(=O)[C@H]2CCCN2C(=O)c2c(-c3ccccc3)noc2C)c2ccccc2C)cn1` (stereo partly drawn) [CBK075055], the viability at 28.5 h, 10 µM was determined as 98.4%.

With `N#Cc1nc(/C=C/c2cccs2)oc1NCCCn1ccnc1` [CBK269455], the viability at 28.5 h, 10 µM was found to be 84.1%.

With `c1cncc(CN2CCOC[C@H]2c2nc(-c3cccnc3)c[nH]2)c1` [CBK289323], the viability at 28.5 h, 10 µM is 86.3%.

For the compound `O=C(Nc1cccc(-c2nc3ccccc3s2)c1)c1ccc(S(=O)(=O)N2CCCC2)cc1` [CBK261787], the viability at 28.5 h, 10 µM amounted to 96.7%.

For `O=C(NCCOc1ccccc1Cc1ccccc1)c1cncc(Br)c1` [CBK266581], the viability at 28.5 h, 10 µM amounted to 103%.

Consider `Cc1c(C(=O)N(C)CC(F)(F)F)nnn1-c1ccc(F)cc1` [CBK282214], for which the viability at 28.5 h, 10 µM is 89.8%.

Regarding `CCOC(=O)CNS(=O)(=O)c1cccc2cccnc12` [CBK034440], the viability at 28.5 h, 10 µM is 115%.

In the case of `COc1ccc(CN(/N=N/c2nonc2C)c2nonc2C)cc1[N+](=O)[O-]` [CBK262386], the viability at 28.5 h, 10 µM was 99.3%.

For the compound `COc1ccc(Br)cc1S(=O)(=O)Nc1cccc(C(=O)Nc2ccc(F)cc2)c1` [CBK038981], the viability at 28.5 h, 10 µM stood at 75.4%.

`O=C(Cc1ccncc1)NC1Cc2ccccc2C1` [CBK200351]: the viability at 28.5 h, 10 µM came out at 94.1%.

For the compound `O=C(NCCn1cc[nH]c1=O)c1cnc(-c2ccc(Cl)cc2)c(-c2ccc(O)cc2)c1` [CBK036766], the viability at 28.5 h, 10 µM was determined as 92%.

For the compound `COc1cccc(CN2CCCC(NC(=O)c3csc(C(C)=O)c3)C2)c1` (stereo not drawn) [CBK307297], the viability at 28.5 h, 10 µM turned out to be 87.6%.

Consider `CN1CCOc2cc(S(=O)(=O)Nc3nnn[nH]3)ccc21` [CBK062389], for which the viability at 28.5 h, 10 µM is 99.1%.

For the compound `Cc1cc(O)nc(SCC(=O)Nc2cc([N+](=O)[O-])ccc2C)n1` [CBK267488], the viability at 28.5 h, 10 µM was 97.9%.

`COc1ccc(CN(C(=O)CCc2c(C)[nH]c(=O)c(C#N)c2C)C2CC2)cc1` [CBK295667]: the viability at 28.5 h, 10 µM was found to be 97.6%.

Consider `Cc1nnc(NC(=O)C2CCN(C(=O)c3cccc(F)c3)CC2)s1` [CBK307588], for which the viability at 28.5 h, 10 µM was determined as 93.2%.

Take `CN(Cc1ccccc1)c1nccnc1-c1ccsc1` [CBK037394]: the viability at 28.5 h, 10 µM stood at 91%.

Consider `Cc1nc(N)nc(NCC(O)CN(C)C)c1Cl` (stereo not drawn) [CBK306963], for which the viability at 28.5 h, 10 µM was determined as 81.7%.

In the case of `Nc1c(Cl)cc(NC(=O)CCCC(=O)O)cc1Cl` [CBK263957], the viability at 28.5 h, 10 µM came out at 91%.

On to `COc1ccc2cc(C(=O)N3CCC(c4ccncc4)CC3)[nH]c2c1` [CBK283799], for which the viability at 28.5 h, 10 µM came to 86.4%.

`N#CCn1nnc(-c2ccc3c(c2)OCO3)n1` [CBK062663]: the viability at 28.5 h, 10 µM came to 98.7%.

Turning to `CCN(CC)C(=O)CN1CCC(c2ccccc2F)CC1` [CBK283549], the viability at 28.5 h, 10 µM was 94%.

Consider `Cc1c(C(C)NC(=O)Nc2ccc(F)cc2F)cnn1C` (stereo not drawn) [CBK266986], for which the viability at 28.5 h, 10 µM came out at 95.1%.

For `O=S(=O)(Nc1ccc2c(ccn2Cc2ccccc2)c1)c1ccc(S(=O)(=O)c2ccccc2)s1` [CBK159533], the viability at 28.5 h, 10 µM turned out to be 114%.

Turning to `Clc1ccc(COc2nccnc2N2CCN(CCOc3ccccc3)CC2)cc1Cl` [CBK083091T], the viability at 28.5 h, 10 µM was 95.2%.

In the case of `CN1CCN(c2ccccc2NC(=O)c2cccc(OCc3ccccc3)c2)CC1` [CBK268345], the viability at 28.5 h, 10 µM is 102%.

For the compound `CCNc1ncnc2c1oc1ccccc12` [CBK263298], the viability at 28.5 h, 10 µM was 89.8%.

Consider `COCCN(CCOC)c1ncc(C#N)cc1Cl` [CBK306227], for which the viability at 28.5 h, 10 µM is 92.6%.

Consider `COc1ccc(C(=O)CSc2nnc(-c3ccccc3)[nH]2)cc1[N+](=O)[O-]` [CBK263299], for which the viability at 28.5 h, 10 µM was determined as 97.4%.

In the case of `Cc1nc2ccc(C(=O)NC3CCCOC3)cc2s1` (stereo not drawn) [CBK282509], the viability at 28.5 h, 10 µM came out at 82.8%.

In the case of `N/C(=N\OC(=O)CSc1ccccc1)c1ccccn1` [CBK266056], the viability at 28.5 h, 10 µM was determined as 105%.

Regarding `CCOCCn1c(CN2CCCCC2)nc2c1c(=O)n(C)c(=O)n2C` [CBK306028], the viability at 28.5 h, 10 µM was determined as 85.8%.

As to `Cc1cc(C)nc(NC(=N)NC2Cc3ccccc3C2)n1` [CBK287863], the viability at 28.5 h, 10 µM worked out at 43.4%.

`CC(=O)c1ccc(NC(=O)CSc2nnc(-c3ccncc3)s2)cc1` [CBK269183]: the viability at 28.5 h, 10 µM was 85.1%.

Consider `CC(C)(C)c1cnc(C(=O)NC2CCCN(c3ncccn3)C2)o1` (stereo not drawn) [CBK305777], for which the viability at 28.5 h, 10 µM is 92.3%.

Regarding `Brc1ncccc1OCc1ccccc1` [CBK001458], the viability at 28.5 h, 10 µM came to 82.6%.

As to `CN(C)c1nc(NC2CC2)nc(Oc2ccc(=O)n(-c3ccccc3)n2)n1` [CBK270187], the viability at 28.5 h, 10 µM stood at 93.9%.

In the case of `O=[N+]([O-])c1ccc(N2CCN(S(=O)(=O)c3ccc4ccccc4c3)CC2)cc1NC1CC1` [CBK264361], the viability at 28.5 h, 10 µM turned out to be 111%.

As for `Cn1c(=O)[nH]c(=O)c2[nH]c(CN3CCN(Cc4ccccc4)CC3)nc21` [CBK269592], the viability at 28.5 h, 10 µM stood at 98.5%.

`COc1cc(C(=O)N2CCC3(CC2)NC(=O)c2cc(C)ccc2O3)ccc1C` [CBK166276]: the viability at 28.5 h, 10 µM is 108%.

`CCn1cc(Cl)c(C(=O)Nc2ccsc2C(=O)OC)n1` [CBK058439]: the viability at 28.5 h, 10 µM stood at 90.9%.

Consider `CC(=O)Nc1ccc(S(=O)(=O)NCCSc2ccc(C)cc2)cc1` [CBK263563], for which the viability at 28.5 h, 10 µM was 111%.

As to `CCN(CC)C(=O)N1CCN(CCC#N)CC1` [CBK027538], the viability at 28.5 h, 10 µM was found to be 94.9%.

As for `O=C(Nc1ccccc1)Nc1ccc(=O)n2c1[C@@H]1C[C@@H](CN(C(=O)c3ccc(F)cc3)C1)C2` [CBK288714], the viability at 28.5 h, 10 µM was determined as 104%.

For the compound `COc1cc2c(cc1OC)CN(/C=N/c1sc3c(c1C#N)CC(C)(C)NC3(C)C)CC2` [CBK262918], the viability at 28.5 h, 10 µM was determined as 105%.

Consider `CC(C)n1c(=O)n(CCN2CCCC2)c2cccnc21` [CBK283532], for which the viability at 28.5 h, 10 µM stood at 98.6%.

In the case of `COCc1ccc(CN2CCC3(CCc4ccccc4C(=O)N3)C2)o1` (stereo not drawn) [CBK284651], the viability at 28.5 h, 10 µM came out at 94.3%.
